Columns and labels:
[1] = Desolvation: standing open under ambient conditions or in vacuum oven, form checked by XRPD; format: physicochemical
Method: A polymorph screen was conducted in the methylethyl ketone (MEK)/water solvent systems, as well as in the acetonitrile (ACN), ACN/water and isopropyl acetate solvent systems. Polymorph screening techniques included crash cooling, solvent evaporation, antisolvent addition, and slurry experiments. Slurry experiments were performed on an IKA RCT hot plate with magnetic stirring set to 710 rpm. The temperature was controlled with an IKA ETS-D5 thermocouple. Solvent volumes were measured and transferred with Gibson Pipetteman volumetric pipettes. New forms that were identified as solvates were subjected to desolvation under two potential conditions: (1) drying in a vacuum oven at 40° C. and (2) sitting undisturbed under ambient conditions in a fume hood. Physical characterization of all forms proceeded by X-ray powder diffraction (XRPD) and thermogravimetric analysis (TGA).
New forms of Compound 1 obtained in the polymorph screen suspected of being solvates were subjected to further form investigation through attempted desolvation. Forms D, E, F, G, H, I, J, K, L and Hydrate A were left to stand open to the atmosphere under ambient conditions and or were placed in a vacuum oven.

[2] = Polymorph screen solvent systems: solubility noted when preparing saturated solutions; format: physicochemical; settings: solvent system: water
Method: A saturated solution of Compound 1, Form XX was made by preparing 1 mL slurries using acetonitrile (ACN), ACN-water (75:25), methylethyl ketone (MEK), or MEK-water (99:1, 90:10, or 80:20) in vials. After 24 hours in capped HPLC vials, the slurries were then filtered to remove residual solids. Approximately 2 additional milligrams of Compound 1 was added to each vial containing a saturated solution. Next, the vials were heated to 70° C. with stirring until all of the material was completely dissolved. Immediately after, the samples were submerged into an ice bath. The product, which precipitated as a white powder within 1 minute, was isolated by filtration and analyzed by XRPD and TGA.
A saturated solution was made by slurrying Compound 1, Form XX in 5 mL of solvent (ACN, isopropyl acetate (IPAc), or MEK) or 1 mL of solvent for the MEK/Water solvent system. After 24 hours, the residual solids were removed by filtration. The saturated solutions were then subjected to rapid solvent evaporation by blowing nitrogen (N2) gas over the samples with a Pierce Model 18780 Reacti-Vap evaporating unit for four hours. The product precipitated as a white powder and the form was analyzed by XRPD and TGA.
A saturated solution of Compound 1, Form XX was made by slurrying either in 5 mL of solvent in the ACN, IPAc, and MEK solvent systems, 2 mL total solvent for IPAc/water, or 1 mL total solvent for the MEK/water solvent systems. After 24 hours, the residual solids were removed by filtration. 20 mL of antisolvent was then quickly added to the saturated solutions to induce precipitation. Hexane was used as the antisolvent in the MEK and IPAc solvent systems, and MTBE was used as the antisolvent in the ACN solvent systems, as a consequence of the immiscibility between ACN and hexane. The product precipitated as a white powder and the form was analyzed by XRPD and TGA.

Compound: CC(C)(C)c1cc(C(C)(C)C)c(NC(=O)c2c[nH]c3ccccc3c2=O)cc1O [Form E, N-[2,4-bis(1,1-dimethylethyl)-5-hydroxyphenyl]-1,4-dihydro-4-oxoquinoline-3-carboxamide]
- XRPD pattern after desolvation attempt ([1]; after standing under ambient conditions and after sitting in the vacuum oven): same XRPD patterns

Compound: CC(C)(C)c1cc(C(C)(C)C)c(NC(=O)c2c[nH]c3ccccc3c2=O)cc1O [Form H, N-[2,4-bis(1,1-dimethylethyl)-5-hydroxyphenyl]-1,4-dihydro-4-oxoquinoline-3-carboxamide]
- Solid form after desolvation attempt ([1]; ambient conditions for one month): same Form H pattern
- Solid form after desolvation attempt ([1]; vacuum oven for one month): converted to a semi-crystalline form

Compound: CC(C)(C)c1cc(C(C)(C)C)c(NC(=O)c2c[nH]c3ccccc3c2=O)cc1O [Form L, N-[2,4-bis(1,1-dimethylethyl)-5-hydroxyphenyl]-1,4-dihydro-4-oxoquinoline-3-carboxamide]
- Solid form after desolvation attempt ([1]; ambient conditions for two weeks): same Form L pattern
- Solid form after desolvation attempt ([1]; vacuum oven for 24 hours): converted to x-ray amorphous

Compound: CC(C)(C)c1cc(C(C)(C)C)c(NC(=O)c2c[nH]c3ccccc3c2=O)cc1O [Form G, N-[2,4-bis(1,1-dimethylethyl)-5-hydroxyphenyl]-1,4-dihydro-4-oxoquinoline-3-carboxamide]
- Solid form after desolvation attempt ([1]; vacuum oven for one month): became x-ray amorphous

Compound: CC(C)(C)c1cc(C(C)(C)C)c(NC(=O)c2c[nH]c3ccccc3c2=O)cc1O [Compound 1, Form XX, N-[2,4-bis(1,1-dimethylethyl)-5-hydroxyphenyl]-1,4-dihydro-4-oxoquinoline-3-carboxamide]
- Solubility in solvent system (antisolvent addition results) [2]: not soluble
- Solubility in solvent system (crash cooling results) [2]: not soluble
- Solubility in solvent system (solvent evaporation results) [2]: not soluble

Compound: CC(C)(C)c1cc(C(C)(C)C)c(NC(=O)c2c[nH]c3ccccc3c2=O)cc1O [Form D, N-[2,4-bis(1,1-dimethylethyl)-5-hydroxyphenyl]-1,4-dihydro-4-oxoquinoline-3-carboxamide]
- Solid form after desolvation attempt ([1]; ambient conditions and vacuum oven for approximately 1 month): converted to a new crystalline form of Compound 1 designated Form R

Compound: CC(C)(C)c1cc(C(C)(C)C)c(NC(=O)c2c[nH]c3ccccc3c2=O)cc1O [Form K, N-[2,4-bis(1,1-dimethylethyl)-5-hydroxyphenyl]-1,4-dihydro-4-oxoquinoline-3-carboxamide]
- Solid form after desolvation attempt ([1]; ambient conditions and vacuum oven for 2 months): converted to a new crystalline form of Compound 1 designated Form S

Reference: US9045425B2, “Solid forms of N-[2,4-bis(1,1-dimethylethyl)-5-hydroxyphenyl]-1,4-dihydro-4-oxoquinoline-3-carboxamide” (Vertex Pharmaceuticals Incorporated, priority 2012, dated 2015)
